Experiments:
[1] = system: female stress-derived axillary odor; test: Cross-adaptation of female stress-derived axillary odor (odor panel, magnitude estimation of perceived intensity); type: in vivo, human; details: for Magnitude of Reduction of Intensity of Female Stress-Derived Odor (FSDO), Males: female stress-derived odor perceived by men; for Magnitude of Reduction of Intensity of Female Stress-Derived Odor (FSDO), Females: female stress-derived odor perceived by women
Text: (§1) The procedure relies upon an individual constantly sniffing an adapting agent, such as a fragrance, and occasionally a test odorant. Perceived intensity of the test odorant is obtained by using psychophysical, magnitude-estimation procedures. These perceived intensities are obtained every 30 seconds over the test period, and are then compared with baseline perceived intensities obtained before the individual began sniffing the adapting agent. Throughout the testing we observe adaptation to the adapting agent. Results during trials with an inserted test odorant, such as the axillary odor used here, are believed to be reasonably predictive. If the perceived intensity of the test odorant decreases during the test, then the adapting agent cross-adapts the test odorant and becomes a cross-adapting agent. If the cross-adapting agent is itself not offensive, then the cross-adapting agent becomes a candidate for use in formulations in consumer products to ameliorate malodors, such as axillary odor or fecal/urine odors, and odors related to the female menstrual cycle.
(§2) Collection of secretions: Apocrine secretions obtained under stressed conditions provided the axillary odor that was used as the test odorant to evaluate the effectiveness of various adapting agents. Secretions were obtained from males (ages 20 to 60 years) and females (ages 20 to 40 years) in good health. […] Volunteers prepared their axillae for collection of apocrine secretions by refraining from deodorant use for 3 days and shaving their axillae the morning of the collection day.
(§3) Volunteers were rested in a supine position. The axillary regions were washed with isopropanol-soaked pads and injected intradermally with 1:10,000 adrenalin (in physiologic saline). This injection stimulated the secretion of apocrine gland secretions, which were collected in 10 μl pipettes, passed into 0.25 ml Eppendorf tubes, and stored on ice (or frozen for longer storage). The amount of secretion collected varied greatly with the individual subject (≦10 μl). The apocrine secretions from each volunteer were combined by consecutively washing each Eppendorf tube with 2×300 μl of doubly distilled water. This aqueous-apocrine fluid was transferred to a 5 ml round-bottomed flask for hydrolysis. X-N. Zeng, J. J. Leyden, J. G. Brand, A. I. Spielman, K. J. McGinley, G. Preti, An Investigation of Human Apocrine Gland Secretion for Axillary Odor Precursors, 18 J. Chem. Ecol. 1039-1055 (1992); X-N. Zeng, J. J. Leyden, A. I. Spielman and G. Preti Analysis of the characteristic human female axillary odors: Qualitative comparison to males. 22 J. Chem. Ecol. 237-257 (1996).
(§4) Production of odor: To produce quantities of stress-derived axillary odor for testing purposes, we hydrolyzed the apocrine secretion. The aqueous solution was refluxed for 20 min with 0.5 ml, 5% aqueous sodium hydroxide under a stream of nitrogen. The mixture was allowed to cool to room temperature, and then it was cooled in ice prior to being acidified with 6 N HCl to pH 2. The resulting axillary odor developed in the reaction mixture upon acidification was used as the test odorant. The axillary odors generated by this in vitro technique are analogous to the malodors produced by stressed individuals.
A separate panel of 24 subjects (12 males and 12 females) tested samples of female stress-derived axillary odor with potential cross-adapting agents, some of which were not included in Example 1 above. Some of the subjects assessing the effectiveness of cross-adaptation of male stress-derived axillary odor were also used in the experiment with female secretions. However, these two experiments were treated as independent events. All panel members were screened for adequate use of magnitude estimation and further trained in its use during two to three training sessions. […]

[2] = system: male stress-derived axillary odor; test: Cross-adaptation of male stress-derived axillary odor (odor panel, magnitude estimation of perceived intensity); type: in vivo, human; details: for Magnitude of Reduction of Intensity of Male Stress-Derived Odor (MSDO), Males: male stress-derived odor perceived by men; for Magnitude of Reduction of Intensity of Male Stress-Derived Odor (MSDO), Females: male stress-derived odor perceived by women
Text: as §1, §2, §3, §4
Sixteen (16) individuals (8 of each gender) served on an odor panel. Subjects ranged in age from 22 to 55 years (mean 32.7±10.6 s.d.), were not pregnant (by verbal report), and were all non-smokers. All panel members were screened for adequate use of magnitude estimation (some people have difficulties maintaining a ratio scale, i.e., when an odorant is half as strong as the previous, these people fail to provide a number that is half the previous estimate) and further trained in its use during 2-3 training sessions. All 16 subjects were tested with samples of male malodor compared to each of the potential cross-adapting agents. […]

[3] = listed as E-isomer 3-methyl-2-pentenoic acid ethyl ester
Further: key: best: Best = Superior Cross-Adaptation; good: Good = Adequate Cross-Adaptation; poor: Poor = Ineffective Cross-Adaptation.

CCCCCC(C)=CC(=O)OCC (single isomer, unassigned) [E-, Z-isomers (3:1) of 3-methyl-2-octenoic acid ethyl esters, 3-methyl-2-octenoic acid ethyl esters]
Magnitude of Reduction of Intensity of Female Stress-Derived Odor (FSDO), Males [1]: best | Magnitude of Reduction of Intensity of Female Stress-Derived Odor (FSDO), Females [1]: best | Magnitude of Reduction of Intensity of Male Stress-Derived Odor (MSDO), Males [2]: best | Magnitude of Reduction of Intensity of Male Stress-Derived Odor (MSDO), Females [2]: best

CCOC(=O)C=C(C)CC (single isomer, unassigned) [E-isomer of 3-methyl-2-pentenoic acid ethyl ester, 3-methyl-2-pentenoic acid ethyl ester]
Magnitude of Reduction of Intensity of Female Stress-Derived Odor (FSDO), Males [1]: poor | Magnitude of Reduction of Intensity of Female Stress-Derived Odor (FSDO), Females [1]: poor | Magnitude of Reduction of Intensity of Male Stress-Derived Odor (MSDO), Males [2]: good | Magnitude of Reduction of Intensity of Male Stress-Derived Odor (MSDO), Males [2, 3]: good | Magnitude of Reduction of Intensity of Male Stress-Derived Odor (MSDO), Females [2]: good | Magnitude of Reduction of Intensity of Male Stress-Derived Odor (MSDO), Females [2, 3]: good

CCOC(=O)C=C(C)CC (single isomer, unassigned) [Z-isomer of 3-methyl-2-pentenoic acid ethyl ester, 3-methyl-2-pentenoic acid ethyl ester]
Magnitude of Reduction of Intensity of Female Stress-Derived Odor (FSDO), Males [1]: poor | Magnitude of Reduction of Intensity of Female Stress-Derived Odor (FSDO), Females [1]: poor | Magnitude of Reduction of Intensity of Male Stress-Derived Odor (MSDO), Males [2]: best | Magnitude of Reduction of Intensity of Male Stress-Derived Odor (MSDO), Males ([2]; listed as Z-isomer 3-methyl-2-pentenoic acid ethyl ester): best | Magnitude of Reduction of Intensity of Male Stress-Derived Odor (MSDO), Females [2]: poor

CC(=O)OC1CCCCC1C(C)(C)C (centres unmarked) [Agrumex, 2-tert-butyl cyclohexyl acetate]
Magnitude of Reduction of Intensity of Female Stress-Derived Odor (FSDO), Males [1]: poor | Magnitude of Reduction of Intensity of Female Stress-Derived Odor (FSDO), Females [1]: best | Magnitude of Reduction of Intensity of Male Stress-Derived Odor (MSDO), Males [2]: good | Magnitude of Reduction of Intensity of Male Stress-Derived Odor (MSDO), Females [2]: poor

O=C1CCCCCCCC=CCCCCCCO1 [Ambrettolide, oxacycloheptadec-10-en-2-one]
Magnitude of Reduction of Intensity of Female Stress-Derived Odor (FSDO), Males [1]: poor | Magnitude of Reduction of Intensity of Female Stress-Derived Odor (FSDO), Females [1]: good | Magnitude of Reduction of Intensity of Male Stress-Derived Odor (MSDO), Males [2]: poor | Magnitude of Reduction of Intensity of Male Stress-Derived Odor (MSDO), Females [2]: poor

COc1ccc(C=O)cc1 [Anisic Aldehyde, 4-methoxybenzaldehyde]
Magnitude of Reduction of Intensity of Female Stress-Derived Odor (FSDO), Males [1]: best | Magnitude of Reduction of Intensity of Female Stress-Derived Odor (FSDO), Females [1]: good

CCCCCCCC1CCC(=O)O1 (centres unmarked) [C14 Aldehyde, gamma-undecalactone]
Magnitude of Reduction of Intensity of Female Stress-Derived Odor (FSDO), Males [1]: good | Magnitude of Reduction of Intensity of Female Stress-Derived Odor (FSDO), Females [1]: good | Magnitude of Reduction of Intensity of Male Stress-Derived Odor (MSDO), Males [2]: good | Magnitude of Reduction of Intensity of Male Stress-Derived Odor (MSDO), Females [2]: poor

CO[C@]1(C)CC[C@@]23C[C@@H]1C(C)(C)[C@@H]2CC[C@H]3C [CEDRAMBER ®, cedryl methyl ether]
Magnitude of Reduction of Intensity of Female Stress-Derived Odor (FSDO), Males [1]: good | Magnitude of Reduction of Intensity of Female Stress-Derived Odor (FSDO), Females [1]: good | Magnitude of Reduction of Intensity of Male Stress-Derived Odor (MSDO), Males [2]: good | Magnitude of Reduction of Intensity of Male Stress-Derived Odor (MSDO), Females [2]: poor

Cc1ccc2c(c1)OCC(=O)CO2 [Calone 1951, 7-methyl-314-dihydro-2H-1,5-benzodioxepin-3-one]
Magnitude of Reduction of Intensity of Female Stress-Derived Odor (FSDO), Males [1]: good | Magnitude of Reduction of Intensity of Female Stress-Derived Odor (FSDO), Females [1]: good

COC(C=C(C)CCC=C(C)C)OC [Citrylal, Octa-2,6-dien; 1,1-dimethoxy-3-7-dimethyl]
Magnitude of Reduction of Intensity of Male Stress-Derived Odor (MSDO), Males [2]: best | Magnitude of Reduction of Intensity of Male Stress-Derived Odor (MSDO), Females [2]: good

C/C=C/C(=O)OC(C)C1CCCCC1 (centres unmarked) [Datilat, Cyclohexyl methyl carbinol crotonate]
Magnitude of Reduction of Intensity of Male Stress-Derived Odor (MSDO), Males [2]: poor | Magnitude of Reduction of Intensity of Male Stress-Derived Odor (MSDO), Females [2]: poor

CCCCCC(C)=CC(=O)OCC [E-isomer of 3-methyl-2-octenoic acid ethyl ester, 3-methyl-2-octenoic acid ethyl ester]
Magnitude of Reduction of Intensity of Female Stress-Derived Odor (FSDO), Males [1]: good | Magnitude of Reduction of Intensity of Female Stress-Derived Odor (FSDO), Females [1]: poor

CCOc1cc(C=O)ccc1O [Ethyl Vanillin, 3-Ethoxy-4-hydroxybenzaldehyde]
Magnitude of Reduction of Intensity of Female Stress-Derived Odor (FSDO), Males [1]: best | Magnitude of Reduction of Intensity of Female Stress-Derived Odor (FSDO), Females [1]: poor

COC(=O)c1c(C)cc(O)c(C)c1O [Evernyl, methyl 2,4-dihydroxy-3,6-dimethylbenzoate]
Magnitude of Reduction of Intensity of Female Stress-Derived Odor (FSDO), Males [1]: poor | Magnitude of Reduction of Intensity of Female Stress-Derived Odor (FSDO), Females [1]: good

O=C1CCCC=CCCCCCCCCCC1 [GLOBANONE ®, cyclohexadecen-5-one-1]
Magnitude of Reduction of Intensity of Female Stress-Derived Odor (FSDO), Males [1]: good | Magnitude of Reduction of Intensity of Female Stress-Derived Odor (FSDO), Females [1]: poor

CC(C=O)Cc1ccc(C(C)(C)C)cc1 (stereo not drawn) [Lilial, 4-(1,1-dimethylethyl)-alpha-methylbenzenepropanal]
Magnitude of Reduction of Intensity of Female Stress-Derived Odor (FSDO), Males [1]: good | Magnitude of Reduction of Intensity of Female Stress-Derived Odor (FSDO), Females [1]: poor

CC(C)(O)CCCC1=CCC(C=O)CC1 (centres unmarked) [Lyral, 4-(4-hydroxy-4-methylpentyl)-3-cyclohexenE-1-carboxaldehyde]
Magnitude of Reduction of Intensity of Female Stress-Derived Odor (FSDO), Males [1]: good | Magnitude of Reduction of Intensity of Female Stress-Derived Odor (FSDO), Females [1]: poor

Cc1cccc(CC(C)(C)CO)c1 [MAJANTOL ®, 2,2-dimethyl-3-(methylphenyl)propanol]
Magnitude of Reduction of Intensity of Female Stress-Derived Odor (FSDO), Males [1]: good | Magnitude of Reduction of Intensity of Female Stress-Derived Odor (FSDO), Females [1]: poor

CC(C)C1CCC(C(C)O)CC1 (centres unmarked) [Mugetanol, 1-(4-isopropylcyclohexyl)ethanol]
Magnitude of Reduction of Intensity of Male Stress-Derived Odor (MSDO), Males [2]: good | Magnitude of Reduction of Intensity of Male Stress-Derived Odor (MSDO), Females [2]: poor

CC(=O)c1oc2ccccc2c1C [Nerolione, 1-(3-bethyl-2-benzofuranyl)-ethanone]
Magnitude of Reduction of Intensity of Male Stress-Derived Odor (MSDO), Males [2]: good | Magnitude of Reduction of Intensity of Male Stress-Derived Odor (MSDO), Females [2]: poor

CCC(C)(O)CCCC(C)C (centres unmarked) [Tetrahydro Linalool, 3,7-Dimethyloctan-3-ol]
Magnitude of Reduction of Intensity of Male Stress-Derived Odor (MSDO), Males [2]: best | Magnitude of Reduction of Intensity of Male Stress-Derived Odor (MSDO), Females [2]: poor

CC(O)C(C)CC1C(C)CCCC1(C)C (centres unmarked) [Timbranol, Isomethyltetrahydroionol]
Magnitude of Reduction of Intensity of Male Stress-Derived Odor (MSDO), Males [2]: poor | Magnitude of Reduction of Intensity of Male Stress-Derived Odor (MSDO), Females [2]: poor

CC(=O)c1cc2c(cc1C)C(C)(C)C(C)CC2(C)C (centres unmarked) [Tonalide, 7-Acetyl-1,1,3,4,4,6-hexamethyltetralin]
Magnitude of Reduction of Intensity of Male Stress-Derived Odor (MSDO), Males [2]: good | Magnitude of Reduction of Intensity of Male Stress-Derived Odor (MSDO), Females [2]: poor

CC=CC(=O)C1C(C)C=CCC1(C)C (centres unmarked) [Δ-Damascone, 1-(2,6,6-trimethyl-3-cyclohexen-1-yl)-2-buten-1-one]
Magnitude of Reduction of Intensity of Male Stress-Derived Odor (MSDO), Males [2]: best | Magnitude of Reduction of Intensity of Male Stress-Derived Odor (MSDO), Females [2]: good

CC(=O)C=CC1C(C)=CCCC1(C)C (stereo not drawn) [α-ionone, 4-(2,2,6-trimethyl-2cyclohexen-1-yl)-3-buten-2-one]
Magnitude of Reduction of Intensity of Female Stress-Derived Odor (FSDO), Males [1]: good | Magnitude of Reduction of Intensity of Female Stress-Derived Odor (FSDO), Females [1]: good

alpha-n-methylionone [Isoraldeine 70]
Magnitude of Reduction of Intensity of Female Stress-Derived Odor (FSDO), Males [1]: best | Magnitude of Reduction of Intensity of Female Stress-Derived Odor (FSDO), Females [1]: poor

isobornyl cyclohexanol
Magnitude of Reduction of Intensity of Male Stress-Derived Odor (MSDO), Males [2]: good | Magnitude of Reduction of Intensity of Male Stress-Derived Odor (MSDO), Females [2]: poor

From patent publication US9381142B2, “Olfactory adaptation and cross-adapting agents to reduce the perception of body odors” (Monell Chemical Senses Center, priority 2002, dated 2016)
